Results published in ChEMBL document CHEMBL1201862, “PubChem BioAssay data set” (2004).
Calls of active or inactive are those of the source.

What was measured:
[1] = IGROV1 ovarian cancer cell cytotoxicity, dose response, PAX8 inhibitor project, plate reader, dry powder samples (AID 743043); assay type: functional, cell-based; settings: IGROV-1
[2] = NIH:OVCAR-3 ovarian cancer cell cytotoxicity, dose response, PAX8 inhibitor project, plate reader, dry powder samples (AID 743044); assay type: functional, cell-based
Paired box protein Pax-8 = Paired box protein Pax-8 (Homo sapiens, UniProt Q06710); assay: inhibitors of PAX8-driven TPO luciferase reporter, dose response, RMG-I cells, cherry-pick (AID 687027); assay type: functional, cell-based;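 note: luciferase reporter driven by Pax8 target thyroperoxidase promoter measured by SteadyGlo luminescence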
Paired box protein Pax-8, sequence (Q06710 whole entry): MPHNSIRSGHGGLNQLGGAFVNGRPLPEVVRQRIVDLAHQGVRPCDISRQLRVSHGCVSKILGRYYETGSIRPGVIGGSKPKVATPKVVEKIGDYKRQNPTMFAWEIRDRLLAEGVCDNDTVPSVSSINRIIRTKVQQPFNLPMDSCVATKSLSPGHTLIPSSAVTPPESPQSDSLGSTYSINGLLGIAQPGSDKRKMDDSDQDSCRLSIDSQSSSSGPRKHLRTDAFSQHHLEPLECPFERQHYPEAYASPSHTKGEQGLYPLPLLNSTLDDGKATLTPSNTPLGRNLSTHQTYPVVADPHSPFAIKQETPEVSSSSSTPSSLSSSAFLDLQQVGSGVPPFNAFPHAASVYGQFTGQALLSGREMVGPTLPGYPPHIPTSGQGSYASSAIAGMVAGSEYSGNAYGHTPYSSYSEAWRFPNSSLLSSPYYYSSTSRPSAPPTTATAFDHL

[3] = cytotoxicity in OVCAR8 ovarian cancer cells, dose response, PAX8 project, cell-based, plate reader, dry powder samples (AID 743197); assay type: functional; settings: OVCAR-8
[4] = T. cruzi growth inhibition in host cells, dose response, cell-based, plate reader, dry powder, set 2 (AID 652275); assay type: functional
[5] = MITF: Counter assay: A375 proliferation Measured in Cell-Based System Using Plate Reader - 2084-03_Inhibitor_Dose_DryPowder_Activity_Set8.; assay type: functional; settings: A-375
[6] = TRPM1 promoter luciferase reporter signal decrease, dose response, MITF inhibitor project, cell-based, SK-MEL-5, dry powder, set 8 (AID 624430); assay type: functional
[7] = MITF Orthogonal Assay: SK-MEL-5 CTG Assay Measured in Cell-Based System Using Plate Reader - 2084-02_Inhibitor_Dose_DryPowder_Activity_Set7.; assay type: functional
[8] = A375 melanoma cell cytotoxicity, dose response, counter-screen for MITF inhibitor project, CellTiter-Glo luminescence, dry powder, set 2 (AID 624489); assay type: functional, cell-based; settings: A-375;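 note: actives are compounds lowering A375 viability meaning general cytotoxicity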
[9] = A375 melanoma cell viability loss, dose response, counter-screen for MITF inhibitor project, CellTiter-Glo luminescence, dry powder, set 4 (AID 624364); assay type: functional, cell-based; settings: A-375;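 note: A375 melanoma cells are MITF independent so this is a counter screen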
[10] = P. falciparum Dd2 growth inhibitors, dose response, SYBR Green, dry powder samples, set 9 (AID 1159568); assay type: functional, cell-based
[11] = molecular target: T1, DNA repair protein RAD52 homolog (Homo sapiens, UniProt P43351); assay type: functional, biochemical
T1 sequence (P43351 whole entry): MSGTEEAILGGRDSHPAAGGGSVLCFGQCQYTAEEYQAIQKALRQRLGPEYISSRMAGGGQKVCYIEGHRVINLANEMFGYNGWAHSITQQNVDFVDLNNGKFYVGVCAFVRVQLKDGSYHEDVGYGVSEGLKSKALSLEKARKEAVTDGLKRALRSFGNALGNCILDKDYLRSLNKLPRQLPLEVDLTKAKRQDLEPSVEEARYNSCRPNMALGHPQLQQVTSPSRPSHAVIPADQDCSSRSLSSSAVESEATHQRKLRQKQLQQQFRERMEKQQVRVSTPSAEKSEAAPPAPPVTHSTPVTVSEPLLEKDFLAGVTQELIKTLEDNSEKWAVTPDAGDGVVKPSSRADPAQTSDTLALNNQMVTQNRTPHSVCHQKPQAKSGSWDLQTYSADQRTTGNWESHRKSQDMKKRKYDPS

[12] = THP-1 cell cytotoxicity, dose response, cytotoxicity control for Vif-APOBEC3G degradation inhibitor project, THP-1 cells (AID 1117359); assay type: functional; settings: Human immunodeficiency virus 1, THP-1
[13] = Dose-response inhibition of insulin secretion in a rat insulinoma line at 5 mM glucose (AID 1117331); assay type: functional, cell-based; settings: INS-1E

In the case of `C[C@@H]1CN([C@@H](C)CO)C(=O)c2cc(NC(=O)Nc3ccc(C(F)(F)F)cc3)ccc2O[C@@H](C)CCCCO[C@H]1CN(C)Cc1ccc2c(c1)OCO2`, the AC50 [1] is reported as 29 µM (active), the AC50 [2] is reported as 9.82 µM (active) and the AC50 (Paired box protein Pax-8) is reported as 14.3 µM (active). The AC50 [3] was 24 µM (active).

In the case of `O=C(CN1CCOCC1)N1CCCCN2[C@@H](CO)[C@H](c3ccc(-c4ccccc4F)cc3)[C@@H]2C1`, the AC50 [4] is reported as 0.84 µM (active).

In the case of `O=C1C(Nc2ccc(F)cc2F)=C(N2CCCC2)C(=O)c2ccccc21`, the AC50 [5] is reported as 8.05 µM (active), the AC50 [6] is reported as 0.677 µM (active) and the AC50 [7] is reported as 2.35 µM (active).

For `CC(C)N1C[C@H](C)[C@@H](CN(C)Cc2ccc(Oc3ccccc3)cc2)Oc2c(C(=O)Nc3ccncc3)cccc2C1=O`, the AC50 [4] was 0.167 µM (active).

With `O=C(NC1=C(N2CCOCC2)C(=O)c2ccccc2C1=O)c1ccccc1` the AC50 [8] was 31.9 µM (active) and the AC50 [9] was 34.6 µM (active).

With `O=C(NC1=C(N2CCSCC2)C(=O)c2ccccc2C1=O)c1ccccc1` the AC50 [8] was 26.9 µM (active) and the AC50 [9] was 40.7 µM (active).

For `O=C1C(Nc2ccc(Cl)c(Cl)c2)=C(N2CCCC2)C(=O)c2ccccc21`, the AC50 [5] was > 70 µM (inactive), the AC50 [6] was 8.91 µM (active) and the AC50 [7] was 29.2 µM (active).

For `N#C[C@@H]1[C@H](c2ccccc2C2=CCCCC2)[C@H](CO)N1S(=O)(=O)c1ccccc1`, the AC50 [10] was 13.1 µM (active).

For `CC1=CC(C)(C)N=C(Nc2nc(C)c3cc(C)cc(C)c3n2)N1`, the AC50 [11] was 5.16 µM (active) and the CC50 [12] was 37.6 µM (active).

For `CC(C(O)c1ccccc1)N(C)CCOC(c1ccccc1)c1ccccc1` (stereo not given) [DIFETEROL], the IC50 [13] was > 33.3 µM (inactive).
